From PubChem BioAssay AID2286 (Southern Research Specialized Biocontainment Screening …, 2010)
Active and inactive are the calls of the source.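 How the source made its calls: active means minimum cell viability of 80% or lower across the dose range, counted as toxic; inactive means minimum cell viability above 80%.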

Tests used:
[1] = system: MAGI-CCR5 cells viability, CellTiter-Glo ATP luminescence; assay: viability loss in fusion assay cells – cell-based, MAGI and MAGI-HeLa co-culture, cytotoxicity control for HIV-1 fusion inhibitor project, dose response (AID 2286);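 further: cells exposed to compound for at least 64 h before ATP readout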;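 on minimum viability: 100% = median of DMSO vehicle wells with no ATP signal meaning 0%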;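 on viability: 100% = median of DMSO vehicle wells with no ATP signal meaning 0%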
[2] = as above; details: MAGI-CCR5 cells viability, CellTiter-Glo ATP luminescence; for minimum viability: measured here: MAGI minimum viability across doses
[3] = measured here: MAGI + HeLa-R5-16 co-culture viability
[4] = MAGI-HeLa co-culture viability, at 50 µM, stronger effect = lower value
[5] = at 12.5 µM, stronger effect = lower value
[6] = at 0.1 µM, stronger effect = lower value
[7] = at 3.13 µM, stronger effect = lower value

O=C(O)c1cccc(NC(=S)N/N=C/c2ccccc2OCc2cccc(Br)c2)c1
CC50 [1]: 22.3 µM
CC50 [1, 3]: 23.9 µM
viability [2, 4]: 28.4%
minimum viability ([2]; at 50 µM, stronger effect = lower value): 9.27%

O=C(O)c1ccc(Nc2nc(-c3cc4ccccc4oc3=O)cs2)cc1O
CC50 [1, 3]: > 50 µM
viability [2, 4]: 77.6%
viability ([2]; at 50 µM (top of the series)): 85.6% (inactive)
minimum viability ([2]; at 50 µM, stronger effect = lower value): 85.6%

COc1cc(/C=C2\SC(=O)N(Cc3ccc(F)cc3)C2=O)cc([N+](=O)[O-])c1O
CC50 [1]: 28.7 µM
CC50 [1, 3]: > 50 µM
viability [2, 4]: 65.7%
minimum viability ([2]; at 50 µM, stronger effect = lower value): 41.9%

CCc1ccc(S(=O)(=O)/N=C2\C=C(NS(=O)(=O)c3ccccc3)C(=O)c3ccccc32)cc1
CC50 [1, 3]: > 50 µM
viability [2, 4]: 80%
minimum viability ([2]; at 50 µM, stronger effect = lower value): 74.4%

COc1cc(/C=C2\SC(=S)NC2=O)ccc1OS(=O)(=O)c1ccccc1
CC50 [1]: 17.9 µM
CC50 [1, 3]: 40.7 µM
viability [2, 4]: 35.9%
minimum viability ([2]; at 50 µM, stronger effect = lower value): 24.8%

O=C(O)c1cccc2c1NC(c1cccc([N+](=O)[O-])c1)C1CC(Sc3ccccc3[N+](=O)[O-])C(Cl)C21 (stereo not given)
CC50 [1, 3]: 47.9 µM
viability [2, 4]: 48.4%
minimum viability ([2]; at 50 µM, stronger effect = lower value): 53.6%

CCCOc1cccc(C2C(C(=O)c3cc4ccccc4o3)=C(O)C(=O)N2c2cc(C)on2)c1 (stereo not given)
CC50 [1]: 49.8 µM
viability [2, 4]: 90.1%
minimum viability ([2]; at 50 µM, stronger effect = lower value): 49.1%

CC1(c2ccccc2)CC(C)(C)N2C(=O)/C(=C3\SC(=S)NC3=O)c3cccc1c32 (stereo not given)
CC50 [1]: 14.1 µM
CC50 [1, 3]: 37 µM
viability [2, 4]: 40.9%
minimum viability ([2]; at 50 µM, stronger effect = lower value): 22.5%

O=C(Nc1ccc(Oc2ccc(Cl)cc2)c(Cl)c1)c1cc(I)cc(I)c1O
CC50 [1]: 13.6 µM
CC50 [1, 3]: 25.2 µM
viability [2, 4]: 11.8%
minimum viability ([2]; at 50 µM, stronger effect = lower value): 10.4%

CC(C(=O)Nc1ccc(O)c(C(=O)O)c1)N1C(=O)/C(=C/c2cccs2)SC1=S (stereo not given)
CC50 [1]: 46.4 µM
CC50 [1, 3]: > 50 µM
viability [2, 4]: 66.1%
minimum viability ([2]; at 50 µM, stronger effect = lower value): 51.2%

O=C(O)CCn1cc(/C=C/C(=O)c2ccc(Cl)cc2)c(-c2cccc(Br)c2)n1
CC50 [1]: 43.1 µM
viability [2, 4]: 87%
minimum viability ([2]; at 50 µM, stronger effect = lower value): 40.5%

Oc1c(Cl)cc(Cl)c(Cl)c1Cc1c(O)c(Cl)cc(Cl)c1Cl
CC50 [1]: 1.96 µM
CC50 [1, 3]: 7.05 µM
viability [2, 4]: 23%
minimum viability ([2]; at 50 µM, stronger effect = lower value): 15.7%

O=C(Nc1cc(S(=O)(=O)N2CCCCC2)ccc1Cl)c1ccccc1NS(=O)(=O)c1ccc(F)cc1
CC50 [1]: 2.49 µM
CC50 [1, 3]: 7.38 µM
viability [2, 4]: 24.8%
minimum viability [2, 5]: 19.1%

CCOC(=O)c1sc2nc3c(SCCC(=O)O)cc(C(=O)c4cc(OC)ccc4O)cn3c(=O)c2c1C
CC50 [1, 3]: > 50 µM
viability [2, 4]: 65.6%
minimum viability ([2]; at 50 µM, stronger effect = lower value): 68.7%

CN(C)S(=O)(=O)c1cccc(-c2nn(-c3ccccc3)cc2/C=C2\SC(=S)N(CC(=O)O)C2=O)c1
CC50 [1, 3]: > 50 µM
viability [2, 4]: 74.7%
minimum viability ([2]; at 50 µM, stronger effect = lower value): 68.6%

O=[N+]([O-])c1cc(Cl)cc(/C=N/NC(=S)Nc2cc(S(=O)(=O)N3CCOCC3)ccc2Cl)c1O
CC50 [1]: 31.1 µM
CC50 [1, 3]: > 50 µM
viability [2, 4]: 65.7%
minimum viability ([2]; at 50 µM, stronger effect = lower value): 34.7%

O=C(O)c1cc(-c2ccc(-c3c(-c4ccc5c(c4)OCO5)noc3-c3ccsc3)cc2)nc2ccccc12
CC50 [1]: 32.5 µM
CC50 [1, 3]: > 50 µM
viability [2, 4]: 64.8%
minimum viability ([2]; at 50 µM, stronger effect = lower value): 40.9%

CCOc1ccc2nc(NC(=O)CSc3nc(-c4ccccc4)c(C#N)c(=O)[nH]3)sc2c1
viability [2, 4]: 125%
viability ([2]; at 50 µM (top of the series)): 105% (inactive)
minimum viability ([2]; at 0.78 µM, stronger effect = lower value): 92.7%

O=C(O)CCN1C(=O)/C(=C\c2cccc(Oc3ccccc3)c2)SC1=S
viability [2, 4]: 90.5%
viability ([2]; at 50 µM (top of the series)): 87.3% (inactive)
minimum viability ([2]; at 25 µM, stronger effect = lower value): 86.3%

O=C(O)CCCN1C(=O)/C(=C/c2ccc(-c3nc4ccccc4s3)o2)SC1=S
viability [2, 4]: 99.7%
viability ([2]; at 50 µM (top of the series)): 92.1% (inactive)
minimum viability [2, 6]: 87.2%

CC(C)(C)c1cc(-c2csc(Nc3ccccc3)[n+]2Cc2ccc(C(=O)O)cc2)cc(C(C)(C)C)c1O
viability [2, 4]: 96.4%
minimum viability ([2]; at 50 µM, stronger effect = lower value): 72.2%

Cc1cn2c(N)c(C=C3C=C(Cl)C(=O)C(Cl)=C3)c(=O)nc2s1
viability [2, 4]: 105%
viability ([2]; at 50 µM (top of the series)): 83.9% (inactive)
minimum viability ([2]; at 25 µM, stronger effect = lower value): 81.8%

O=C(CCN1C(=O)/C(=C/c2ccco2)SC1=S)Nc1ccc(C(=O)O)c(O)c1
viability [2, 4]: 108%
viability ([2]; at 50 µM (top of the series)): 90.6% (inactive)
minimum viability [2, 5]: 83%

CCCCCc1c2c(cc(O)c1C(=O)O)OC(=O)c1c(cc(OC)cc1C(=O)CCCC)O2
viability [2, 4]: 82%
viability ([2]; at 50 µM (top of the series)): 84.4% (inactive)
minimum viability ([2]; at 50 µM, stronger effect = lower value): 84.4%

COc1ccc(C(=O)Oc2ccc(/C=N/Nc3ccc(Cl)c(C(=O)O)c3)cc2OC)cc1
viability [2, 4]: 104%
viability ([2]; at 50 µM (top of the series)): 80.5% (inactive)
minimum viability ([2]; at 50 µM, stronger effect = lower value): 80.5%

O=C(O)CCN1C(=O)/C(=C\c2cccc(OCC(=O)Nc3ccc(Cl)cc3)c2)SC1=S
viability [2, 4]: 88%
minimum viability ([2]; at 50 µM, stronger effect = lower value): 73.5%

CCOC(=O)c1sc(N2C(=O)C(O)=C(C(=O)c3ccco3)C2c2ccc([N+](=O)[O-])cc2)nc1C (stereo not given)
viability [2, 4]: 124%
viability ([2]; at 50 µM (top of the series)): 80.3% (inactive)
minimum viability ([2]; at 50 µM, stronger effect = lower value): 80.3%

Cc1cccc(OCC(=O)Nc2ccc(C(=O)Nc3ccccc3C(=O)O)cc2)c1C
viability [2, 4]: 93%
minimum viability ([2]; at 50 µM, stronger effect = lower value): 76.6%

CCN1C(=O)/C(=C\c2ccc(-c3ccc([N+](=O)[O-])cc3OC)o2)SC1=Nc1cccc(C(=O)O)c1
viability [2, 4]: 106%
viability ([2]; at 50 µM (top of the series)): 88.3% (inactive)
minimum viability [2, 7]: 87.5%

Cc1ccc(Cl)cc1N1CCN(C(=O)Cc2c(C(=O)O)[nH]c3ccc(Cl)cc23)CC1
viability [2, 4]: 98.9%
viability ([2]; at 50 µM (top of the series)): 91.8% (inactive)
minimum viability [2, 5]: 85.7%

O=C(O)c1ccc(-c2ccc(/C=C3\NC(=O)N(Cc4ccc(Cl)cc4)C3=O)o2)cc1Cl
viability [2, 4]: 102%
viability ([2]; at 50 µM (top of the series)): 107% (inactive)
minimum viability [2, 7]: 98.2%

O=C(Nc1ccc(-c2nc3ccccc3[nH]2)cc1)c1ccccc1NS(=O)(=O)c1ccc(F)cc1
viability [2, 4]: 116%
minimum viability ([2]; at 50 µM, stronger effect = lower value): 64.3%

O=C(O)CN1C(=O)/C(=C\c2cccc(OCc3ccc(Cl)cc3Cl)c2)SC1=S
viability [2, 4]: 126%
viability ([2]; at 50 µM (top of the series)): 95.6% (inactive)
minimum viability [2, 5]: 80.7%

O=C(O)c1[nH]c2ccccc2c1C(c1ccccc1)c1c(C(=O)O)[nH]c2ccccc12
viability [2, 4]: 93.2%
viability ([2]; at 50 µM (top of the series)): 86% (inactive)
minimum viability [2, 5]: 81.8%

CCS(=O)(=O)C1=NN2C(=N)/C(=C\c3ccc(OS(=O)(=O)c4ccccc4)c(OC)c3)C(=O)N=C2S1
viability [2, 4]: 97.9%
viability ([2]; at 50 µM (top of the series)): 85.5% (inactive)
minimum viability ([2]; at 1.56 µM, stronger effect = lower value): 82.4%

COC(=O)c1sc(-c2ccc(C(C)(C)C)cc2)cc1NC(=O)c1ccccc1C(=O)O
viability [2, 4]: 111%
minimum viability ([2]; at 50 µM, stronger effect = lower value): 73.7%

O=C(CSc1nc2ccccc2c(=O)n1Cc1ccccc1)Nc1ccc(Br)cc1C(=O)O
viability [2, 4]: 96.5%
viability ([2]; at 50 µM (top of the series)): 87.7% (inactive)
minimum viability ([2]; at 25 µM, stronger effect = lower value): 81.4%

O=C(Nc1cccc(C(F)(F)F)c1)c1cccc(NS(=O)(=O)c2ccc(O)c(C(=O)O)c2)c1
viability [2, 4]: 107%
viability ([2]; at 50 µM (top of the series)): 85.7% (inactive)
minimum viability ([2]; at 25 µM, stronger effect = lower value): 83.3%

CS(=O)(=O)C1=NSC2=NC(=O)/C(=C\c3ccc(OS(=O)(=O)c4ccccc4)cc3)C(=N)N21
viability [2, 4]: 89.2%
viability ([2]; at 25 µM (top of the series)): 83.8% (inactive)
minimum viability [2, 5]: 83.1%

O=C(O)CSc1ncnc2c1sc1nc(-c3ccccc3)c3c(c12)CCC3
viability [2, 4]: 111%
viability ([2]; at 50 µM (top of the series)): 98.6% (inactive)
minimum viability [2, 5]: 92.4%

CCOc1cc(Br)cc(C(c2c(C(=O)O)[nH]c3ccccc23)c2c(C(=O)O)[nH]c3ccccc23)c1O
viability [2, 4]: 100%
viability ([2]; at 50 µM (top of the series)): 87% (inactive)
minimum viability ([2]; at 6.25 µM, stronger effect = lower value): 82.9%

Cc1ccccc1N/N=C/c1sc(=O)n(Cc2cccc(C(=O)O)c2)c1Cl
viability [2, 4]: 109%
minimum viability ([2]; at 50 µM, stronger effect = lower value): 72.9%

CCc1ccc(/C=C2\SC(=S)N(CCCC(=O)Nc3ccccc3C(=O)O)C2=O)cc1
viability [2, 4]: 90.6%
minimum viability ([2]; at 50 µM, stronger effect = lower value): 70.3%

O=c1[nH]c(=S)[nH]c2c1C(c1ccc(Br)cc1)c1c([nH]c(=S)[nH]c1=O)O2
viability [2, 4]: 116%
viability ([2]; at 50 µM (top of the series)): 91.7% (inactive)
minimum viability [2, 5]: 82.5%

O=C(O)c1[nH]c2ccccc2c1C(c1c(F)cccc1Cl)c1c(C(=O)O)[nH]c2ccccc12
viability [2, 4]: 114%
viability ([2]; at 50 µM (top of the series)): 104% (inactive)
minimum viability [2, 6]: 87.9%

CCCCCNC(=O)c1ccc2c(=O)[nH]c3c(C(=O)NCC4CCCO4)sc(=S)n3c2c1 (stereo not given)
viability [2, 4]: 105%
minimum viability ([2]; at 25 µM, stronger effect = lower value): 69.3%

CCOc1cc(/C=C2/C(=N)N3C(=NC2=O)SN=C3S(=O)(=O)C(C)C)ccc1OC(=O)c1ccco1
viability [2, 4]: 103%
viability ([2]; at 50 µM (top of the series)): 91.5% (inactive)
minimum viability [2, 5]: 86.8%

CCCCCOc1ccc(C2C(C(=O)c3ccc(C)o3)=C(O)C(=O)N2c2cc(C)on2)cc1 (stereo not given)
viability [2, 4]: 113%
viability ([2]; at 50 µM (top of the series)): 85.1% (inactive)
minimum viability ([2]; at 25 µM, stronger effect = lower value): 84.6%

O=C(O)c1[nH]c2ccccc2c1C(c1cc(Cl)cc([N+](=O)[O-])c1O)c1c(C(=O)O)[nH]c2ccccc12
viability [2, 4]: 96.1%
viability ([2]; at 50 µM (top of the series)): 99.1% (inactive)
minimum viability [2, 5]: 93.4%

COc1ccc(NS(=O)(=O)c2ccc3c(c2)[C@H]2C=CC[C@H]2[C@@H](c2ccc(C(=O)O)cc2)N3)cc1
viability [2, 4]: 130%
viability ([2]; at 50 µM (top of the series)): 99.7% (inactive)
minimum viability [2, 7]: 95.3%

COc1cc(NS(=O)(=O)c2ccc(NC(=S)NC(=O)c3sc4ccccc4c3Cl)cc2)nc(OC)n1
viability [2, 4]: 105%
minimum viability ([2]; at 50 µM, stronger effect = lower value): 76.8%
